≈ marks a conversion by molar mass, not a printed value. Read-outs that look alike come from different tables or passages of the source.
Columns and labels:
Type in all cases: cell-based
[1] = test system: Staphylococcus aureus; assay: In Vitro Vial Test (nutrient broth); conditions: 168 h; for MIC: read-out: Lowest Effective Concentration
[2] = test system: Escherichia coli; assay: In Vitro Vial Test (nutrient broth); conditions: 168 h; for minimal effective concentration: read-out: Lowest Effective Concentration (partial control); for MIC: read-out: Lowest Effective Concentration
[3] = test system: Penicillium italicum; assay: In Vitro Vial Test (malt broth); conditions: 168 h; for minimal effective concentration: read-out: Lowest Effective Concentration (partial control); for MIC: read-out: Lowest Effective Concentration
[4] = test system: Aspergillus niger; assay: In Vitro Vial Test (malt broth); conditions: 168 h; for MIC: read-out: Lowest Effective Concentration
[5] = test system: Trichophyton mentagrophytes; assay: Detergent Formulation Test; conditions: washed cotton cloth, compounds at 0.2% in Tide detergent, 37° C.
[6] = test system: Escherichia coli; assay: Soap Plug Test; conditions: 1% in sodium stearate soap plug, 37° C., 17 hours
[7] = test system: Brevibacterium ammoniagenes; assay: Detergent Formulation Test; conditions: washed cotton cloth, compounds at 0.2% in Tide detergent, 37° C.
[8] = test system: Staphylococcus aureus; assay: Detergent Formulation Test; conditions: washed cotton cloth, compounds at 0.2% in Tide detergent, 37° C.
[9] = test system: Staphylococcus aureus; assay: Soap Plug Test; conditions: 1% in sodium stearate soap plug, 37° C., 17 hours
[10] = test system: Escherichia coli; assay: Detergent Formulation Test; conditions: washed cotton cloth, compounds at 0.2% in Tide detergent, 37° C.
[11] = test system: Escherichia coli; assay: Microbiocide Testing Procedure Using Agar; conditions: nutrient agar, 37° C., read-out: Minimum Inhibitory Concentration
Procedure: (§1) This test measures the bactericidal and fungicidal properties of a compound when in contact with a growing bacterium or fungi in an artificial medium. […] The treated agar mixture is then allowed to come to room temperature and solidify. Cells of the particular organism are then streaked on the surface of the solidified agar and are then incubated for such lengths of time that untreated samples containing no toxicant show luxurious growth typical of the particular organism. This time varies from 24 hours to one week, depending on the particular organism. The fungi are incubated at 30° C. and the bacteria are incubated at 37° C. Nutrient agar is used as the medium in this test for the bacteria. Potato dextrose agar is used as the medium for the fungi.

[12] = test system: Aspergillus niger; assay: Microbiocide Testing Procedure Using Agar; conditions: potato dextrose agar, 30° C., read-out: Minimum Inhibitory Concentration
Procedure: as §1

[13] = test system: Penicillium italicum; assay: Microbiocide Testing Procedure Using Agar; conditions: potato dextrose agar, 30° C.
Procedure: as §1

[14] = test system: Staphylococcus aureus; assay: Microbiocide Testing Procedure Using Agar; conditions: nutrient agar, 37° C., read-out: Minimum Inhibitory Concentration
Procedure: as §1

[15] = nutrient broth, one week, value printed in: partial control at this concentration
[16] = malt broth, one week, value printed in: partial control at this concentration

Compound: O=C(CCl)Nc1cccc(O)c1 [A, reference compound]
- minimal effective concentration ([1]; nutrient broth, one week, value printed in: partial control at this concentration, read-out: Lowest Effective Concentration (partial control)): 250 µg/mL
- minimal effective concentration [2, 15]: 250 µg/mL
- minimal effective concentration [3, 16]: 500 µg/mL
- MIC ([4]; malt broth, one week): > 500 µg/mL

Compound: CC(C)NC(=O)Oc1cccc(NC(=O)CCl)c1 [B, reference compound]
- MIC [1]: > 500 µg/mL
- MIC [2]: > 500 µg/mL
- MIC [3]: > 500 µg/mL
- MIC [4]: > 500 µg/mL

Compound: O=C(CBr)Nc1cccc(O)c1 [Compound 1, 3'-hydroxybromoacetanilide]
- Zone of Biological Inhibition (radius) [5]: 1 mm
- Zone of Biological Inhibition (radius) [6]: 2 mm
- Zone of Biological Inhibition (radius) [7]: 0 mm
- MIC ([1]; nutrient broth, one week): 10 µg/mL (≈ 43.5 µM)
- Zone of Biological Inhibition (radius) [8]: 3 mm
- minimal effective concentration [2, 15]: 10 µg/mL
- Zone of Biological Inhibition (radius) [9]: 12-15 mm
- minimal effective concentration [3, 16]: 25 µg/mL
- Zone of Biological Inhibition (radius) [10]: 2 mm
- MIC ([4]; malt broth, one week): 100 µg/mL (≈ 435 µM)

Compound: CNC(=O)Oc1cccc(NC(=O)CBr)c1 [Compound 2, 3'-N-methyl carbamoyloxy bromoacetanilide]
- MIC [1]: 50 µg/mL (≈ 174 µM)
- MIC [2]: 50 µg/mL (≈ 174 µM)
- MIC [3]: > 50 µg/mL
- MIC [4]: > 50 µg/mL

Compound: CC(C)NC(=O)Oc1cccc(NC(=O)CBr)c1 [Compound 3]
- Zone of Biological Inhibition (radius) [6]: 2 mm
- MIC [1]: 10 µg/mL (≈ 31.7 µM)
- MIC [2]: 25 µg/mL (≈ 79.3 µM)
- Zone of Biological Inhibition (radius) [9]: 6-8 mm
- minimal effective concentration [3]: 25 µg/mL
- minimal effective concentration ([4]; read-out: Lowest Effective Concentration (partial control)): 100 µg/mL

Compound: C=CCNC(=O)Oc1cccc(NC(=O)CBr)c1 [Compound 4]
- MIC [1]: 50 µg/mL (≈ 160 µM)
- MIC [2]: > 50 µg/mL
- MIC [3]: 50 µg/mL (≈ 160 µM)
- MIC [4]: > 50 µg/mL

Compound: O=C(CBr)Nc1cccc(OC(=O)NC2CCCCC2)c1 [Compound 5]
- MIC [1]: 50 µg/mL (≈ 141 µM)
- minimal effective concentration [2]: 50 µg/mL
- minimal effective concentration [3]: 50 µg/mL
- MIC [4]: > 50 µg/mL

Compound: O=C(CBr)Nc1ccc(O)cc1 [Compound 6]
- MIC ([1]; nutrient broth, one week): 25 µg/mL (≈ 109 µM)
- MIC ([2]; nutrient broth, one week): 25 µg/mL (≈ 109 µM)
- MIC ([3]; malt broth, one week): 50 µg/mL (≈ 217 µM)
- MIC ([4]; malt broth, one week): 50 µg/mL (≈ 217 µM)

Compound: CC(C)CS(=O)(=O)Oc1cccc(NC(=O)CBr)c1 [Compound 7, m-Isobutylsulfonyloxy bromoacetanilide]
- MIC [11]: > 50 µg/mL
- MIC [12]: > 50 µg/mL
- MIC ([13]; value printed in, not explained in Table III (Table II: partial control), read-out: Minimum Inhibitory Concentration (value in parentheses)): 10 µg/mL (≈ 28.6 µM)
- MIC [14]: 50 µg/mL (≈ 143 µM)
- MIC ([1]; nutrient broth, one week): 50 µg/mL (≈ 143 µM)
- MIC ([2]; nutrient broth, one week): > 50 µg/mL
- MIC ([3]; malt broth, one week): 50 µg/mL (≈ 143 µM)
- MIC ([4]; malt broth, one week): > 50 µg/mL

Compound: O=C(CBr)Nc1cccc(OS(=O)(=O)c2ccccc2)c1 [Compound 8, m-Phenylsulfonyloxy bromoacetanilide]
- MIC [11]: > 50 µg/mL
- MIC [12]: > 50 µg/mL
- MIC ([13]; read-out: Minimum Inhibitory Concentration): 50 µg/mL (≈ 135 µM)
- MIC [14]: 10 µg/mL (≈ 27 µM)
- MIC ([1]; nutrient broth, one week): 50 µg/mL (≈ 135 µM)
- MIC ([2]; nutrient broth, one week): > 50 µg/mL
- MIC ([3]; malt broth, one week): 50 µg/mL (≈ 135 µM)
- MIC ([4]; malt broth, one week): > 50 µg/mL

Compound: O=C(Nc1ccc(Cl)cc1)Nc1ccc(Cl)c(Cl)c1 [TCC, 3,4,4-trichlorocarbanilide, reference compound]
- Zone of Biological Inhibition (radius) [6]: 0 mm
- Zone of Biological Inhibition (radius) [9]: 5 mm

Source: patent US4081474A, “Sulfonyloxy bromoacetanilides and their utility as biocides” (Stauffer Chemical Company, priority 1976, dated 1978)
